Laboratory results taken from patent publication US20150140043A1, “IMMUNOMODULATORY METHODS USING NOTCH AGONISTS” (INSTITUT NATIONAL DE LA SANTE DE LA RECHERCHE MEDICAL …, priority 2012, published 2015).

B1: DL-1: recombinant NOTCH ligand Delta-like 1, used coated as DL-1-Fc (SEQ ID NO: 8) (protein, listed as Homo sapiens)
chain: MGSRCALALAVLSALLCQVWSSGVFELKLQEFVNKKGLLGNRNCCRGGAGPPPCACRTFFRVCLKHYQASVSPEPPCTYGSAVTPVLGVDSFSLPDGGGADSAFSNPIRFPFGFTWPGTFSLIIEALHTDSPDDLATENPERLISRLATQRHLTVGEEWSQDLHSSGRTDLKYSYRFVCDEHYYGEGCSVFCRPRDDAFGHFTCGERGEKVCNPGWKGPYCTEPICLPGCDEQHGFCDKPGECKCRVGWQGRYCDECIRYPGCLHGTCQQPWQCNCQEGWGGLFCNQDLNYCTHHKPCKNGATCTNTGQGSYTCSCRPGYTGATCELGIDECDPSPCKNGGSCTDLENSYSCTCPPGFYGKICELSAMTCADGPCFNGGRCSDSPDGGYSCRCPVGYSGFNCEKKIDYCSSSPCSNGAKCVDLGDAYLCRCQAGFSGRHCDDNVDDCASSPCANGGTCRDGVNDFSCTCPPGYTGRNCSAPVSRCEHAPCHNGATCHERGHRYVCECARGYGGPNCQFLLPELPPGPAVVDLTEKLEGQGGPFPWVAVCAGVILVLMLLLGCAAVVVCVRLRLQKHRPPADPCRGETETMNNLANCQREKDISVSIIGATQIKNTNKKADFHGDHSADKNGFKARYPAVDYNLVQDLKGDDTAVRDAHSKRDTKCQPQGSSGEEKGTPTTLRGGEASERKRPDSGCSTSKDTKYQSVYVISEEKDECVIATEV

Assays:
TGF-βRII RNA expression = test: Quantitative real-time PCR of TGF-βRII transcripts in CD4+CD25- T cells; type: cell-based, human; conditions: coated anti-CD3 (200 ng/ml) and ligand (5 μg/ml) for 3 hours
Procedure: FIG. 3: TGF-βRII expression on effector T cells after NOTCH ligands exposure • A) CD4^+CD25^−T cells were purified using Miltenyi microbeads from PBMC and cultured for 3 hours in coated wells with anti-CD3 (200 ng/ml) and NOTCH ligands (5 μg/ml) or IgG control (5 μg/ml). Quantitative real-time PCR was performed to measure the transcripts levels of TGF-βRII. Data shown are mean±SEM and are representative of 4 independent experiments. * indicates P<0.05. • B) Protein levels of TGF-βRII in CD4^+CD25^−T cells stimulated to DL-1, DL-4 and Jagged-1 using FACS analysis. Mean of fluorescence are represented±SEM. * indicates P<0.05.
CD4^+CD25^− T cells were cultured for 3 hours in coated wells with anti-CD3 (200 ng/ml) and NOTCH ligands (5 μg/ml) or IgG control (5 μg/ml). Total RNA was extracted with Trizol (Invitrogen) and purified by chloroform extraction. RNA was then reverse transcribed using 1 mM oligodT and the Superscript™ HH Rnase H-reverse transcriptase (Invitrogen Life technologies) according to the manufacturer's instructions. Quantitative PCR was performed in a LightCycler System (Roche diagnostics) using a SYBR Green PCR kit from Roche Diagnostics. The cDNA input for each population was normalized to obtain equivalent signals with Splicing Factor 3A1 (SF3A1) used as housekeeping gene. Primers used were: […]
Active TGF-β mediates its biological functions by binding to TGF-β type I and type II receptors (TGF-βRII). Therefore, the effects of NOTCH activation on TGF-βRII expression of effector T cells were first investigated. […] This effect is abrogated in the presence of GSI (P<0.05 for comparison with culture performed without GSI vehicle).

pSmad3 = test: Immunoblot for pSmad3 in CD4+CD25- T cells; type: cell-based, human; conditions: 48 hours on coated ligand in the presence of TGF-β (5 ng/ml)
Procedure: FIG. 4: TGF-βRII function on effector T cells stimulated to NOTCH ligands • A) Western blot analysis was performed on CD4^+CD25^−T cells cultured for 48 hours in coated wells with anti-CD3 (200 ng/ml) and NOTCH ligands (5 μg/ml) in presence of TGF-β (5 ng/ml). The whole cell lysate was analysed by immunoblot for pSmad3 and b-actin was used as loading control. The experiment was repeated twice with similar results. […] Cells were analyzed 48 hours later and data normalized for β-galactosidase activity. Histograms show the luciferase activity in a representative experiment performed in PC12 with TβRII promoter-luciferase construct. The experiment was repeated 3 times with similar results.
CD4^+CD25^− T cells were stimulated with NOTCH Ligand during 2 days. 1 ng/ml of TGF-β was also added during 30 min to induce Smad3 phosphorylation. Cells were collected, washed and lysed with Tris HCL (20 mM) 0.5% SDS buffer in presence of DNase (benzonase), inhibitors of phosphatase and protease. 10 μg proteins were deposed for Western blot Analysis with following Antibodies: Anti-PhosphoSmad3, Smad3, Actine.
Given the above observations showing an upregulation of TGF-βRII following NOTCH activation, the inventors hypothesized that Jagged-1 and DL-4 led to an activation of TGF-β signalling in effector T cells. […]

Row | Molecule | TGF-βRII RNA expression, increase compared to IgG control (TGF-βRII RNA expression) | pSmad3 signal (immunoblot) (pSmad3)
1 | Jagged-1: recombinant NOTCH ligand Jagged-1, used coated as Jagged-1-Fc (SEQ ID NO: 5) | 2.8 fold | strong pSmad3 signal
2 | B1 | did not significantly modify | weak pSmad3 signal
